Reference: patent US9708336B2, “Metallo-beta-lactamase inhibitors” (priority 2014, dated 2017)
pIC50: −log10 of the molar value. Like-named read-outs stand apart in the source and are kept apart here.

Assays:
NDM-1 = NDM-1 (Klebsiella pneumoniae, UniProt C7C422); experiment: biochemical; assay type: biochemical; conditions: read-out: NDM-1 IC50
IMP-1 = IMP-1 (Serratia marcescens, UniProt P52699); experiment: biochemical; assay type: biochemical; conditions: read-out: IMP-1 IC50
VIM-1 = VIM-1 (Pseudomonas aeruginosa (strain ATCC 15692 / DSM 22644 / CIP 104116 / JCM 14847 / LMG 12228 / 1C / PRS 101 / PAO1), UniProt A0A0F7KYQ8); experiment: Enzyme activity: determination of IC50, fluorescence assay with CCF2-FA substrate (VIM-1); assay type: biochemical
[1] = tested on: Escherichia coli expressing NDM-1 (CLB30005); experiment: Antibiotic potentiation activity: synergistic concentration (MITC95) with imipenem, OD600 growth; assay type: cell-based; conditions: for Escherichia coli expressing NDM-1 (CLB 30005) MITC95: concentration giving 95% inhibition of bacterial growth; for Escherichia coli MITC95: Escherichia coli expressing NDM-1 (CLB30005), 95% growth inhibition
Method in brief: (§1)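 CLB30005 was precultured on Mueller Hinton agar with 8 ug/ml imipenem, the other strains on trypticase soy agar with 5% sheep blood, overnight at 35 °C. Saline suspensions diluted 1:100 in 1.1× CAMHB received compound and 4 μg/ml imipenem, then 22–24 h at 35 °C before absorbance reading.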

[2] = tested on: Klebsiella pneumoniae expressing VIM-1 (IHMA599644); experiment: as above; assay type: cell-based; conditions: for Klebsiella pneumoniae expressing VIM-1 (IHMA 599644) MITC95: concentration giving 95% inhibition of bacterial growth; for Klebsiella pneumoniae MITC95: Klebsiella pneumoniae expressing VIM-1 (IHMA599644), 95% growth inhibition
Method in brief: as §1

[3] = tested on: Serratia marcescens expressing IMP-1 (CL5741); experiment: as above; assay type: cell-based; conditions: for Serratia marcescens expressing IMP-1 (CL5741) MITC95: concentration giving 95% inhibition of bacterial growth; for Serratia marcescens MITC95: Serratia marcescens expressing IMP-1 (CL5741), 95% growth inhibition
Method in brief: as §1

[4] = fluorescence assay with CCF2-FA substrate
[5] = fluorescence assay with CCF2-FA substrate, read-out: VIM-1 IC50
[6] = NDM-1 enzyme, CCF2-FA fluorescence assay
[7] = IMP-1 enzyme, CCF2-FA fluorescence assay
[8] = VIM-1 enzyme, CCF2-FA fluorescence assay, read-out: VIM-1 IC50

IMP-1, sequence (P52699 whole entry, looked up): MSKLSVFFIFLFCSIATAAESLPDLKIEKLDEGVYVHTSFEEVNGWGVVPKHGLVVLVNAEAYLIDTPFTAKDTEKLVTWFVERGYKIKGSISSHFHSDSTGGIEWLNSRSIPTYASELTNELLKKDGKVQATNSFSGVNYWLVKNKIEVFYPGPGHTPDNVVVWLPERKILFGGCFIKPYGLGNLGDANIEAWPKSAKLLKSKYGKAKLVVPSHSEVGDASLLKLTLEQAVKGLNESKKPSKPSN
NDM-1, sequence (C7C422 whole entry, looked up, species assumed): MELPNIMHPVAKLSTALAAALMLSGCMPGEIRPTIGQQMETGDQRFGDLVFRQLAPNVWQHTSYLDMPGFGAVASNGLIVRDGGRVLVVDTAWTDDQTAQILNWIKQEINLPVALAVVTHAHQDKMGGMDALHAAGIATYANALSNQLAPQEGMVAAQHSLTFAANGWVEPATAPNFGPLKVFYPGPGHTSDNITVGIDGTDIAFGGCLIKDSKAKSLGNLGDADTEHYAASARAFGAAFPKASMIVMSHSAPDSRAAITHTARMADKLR

| SMILES | pIC50 (NDM-1; [4]) | pIC50 (IMP-1; [4]) | pIC50 (VIM-1; [5]) | Escherichia coli expressing NDM-1 (CLB 30005) MITC95 [1] [µM] | Klebsiella pneumoniae expressing VIM-1 (IHMA 599644) MITC95 [2] [µM] | Serratia marcescens expressing IMP-1 (CL5741) MITC95 [3] [µM] | pIC50 (VIM-1; VIM-1 IC50, fluorescence assay with CCF2-FA substrate) | pIC50 (NDM-1; [6]) | pIC50 (IMP-1; [7]) | pIC50 (VIM-1; [8]) | Escherichia coli MITC95 [1] [µM] | Klebsiella pneumoniae MITC95 [2] [µM] | Serratia marcescens MITC95 [3] [µM] | pIC50 (VIM-1; VIM-1 IC50, VIM-1 enzyme, CCF2-FA fluorescence assay) |
| --- | --- | --- | --- | --- | --- | --- | --- | --- | --- | --- | --- | --- | --- | --- |
| NS(=O)(=O)c1cccc(-c2ccc3ncccc3c2)c1-c1nn[nH]n1 [Example 66, 3-quinolin-6-yl-2-(2H-tetrazol-5-yl)benzenesulfonamide] | 8.96 | 6.85 | 7.54 | 0.7813 | 75 | 18.75 |  |  |  |  |  |  |  |  |
| NS(=O)(=O)c1nccc(-c2ccc(N3CCOCC3)nc2)c1-c1nn[nH]n1 [Example 208, 6-morpholino-3′-(2H-tetrazol-5-yl)-[3,4′-bipyridine]-2′-sulfonamide] | 7.02 | 6.23 |  | 3.646 | >200 | 37.5 | 6.25 |  |  |  |  |  |  |  |
| NS(=O)(=O)c1cccc(C(=O)O)c1-c1nn[nH]n1 [Example 297, 3-Sulfamoyl-2-(2H-tetrazol-5-yl)benzoic acid] |  |  |  |  |  |  |  | 5.61 | 4.70 | 4.70 | 12.5 | >200 | >200 |  |
| C[C@@H]1NC(=O)O[C@H]1c1ccc(-c2cccc(S(N)(=O)=O)c2-c2nnn[nH]2)cc1 [Example 29, 4′-[(4S,5S)-4-methyl-2-oxo-1,3-oxazolidin-5-yl]-2-(1H-tetrazol-5-yl)biphenyl-3-sulfonamide] | 8.83 | 7.92 | 7.28 | 3.125 | 200 | 6.25 |  |  |  |  |  |  |  |  |
| NS(=O)(=O)c1cccc(-c2cncs2)c1-c1nn[nH]n1 [Example 44, 2-(2H-tetrazol-5-yl)-3-(1,3-thiazol-5-yl)benzenesulfonamide] | 7.46 | 6.53 | 6.53 | 0.3906 | 37.5 | 12.5 |  |  |  |  |  |  |  |  |
| NS(=O)(=O)c1nccc(-c2ccc3cccnc3c2)c1-c1nn[nH]n1 [Example 213, 4-(quinolin-7-yl)-3-(2H-tetrazol-5-yl)pyridine-2-sulfonamide] | 7.29 | 6.25 | 7.20 | 1.042 | 100 | 37.5 |  |  |  |  |  |  |  |  |
| NS(=O)(=O)c1cccc(-c2ccc(C(=O)N3CCC(O)CC3)cc2)c1-c1nn[nH]n1 [Example 52, 4′-[(4-hydroxypiperidin-1-yl)carbonyl]-2-(2H-tetrazol-5-yl)biphenyl-3-sulfonamide] | 8.77 | 7.75 | 7.01 | 1.563 | 100 | 6.25 |  |  |  |  |  |  |  |  |
| NS(=O)(=O)c1cccc(-c2cscn2)c1-c1nn[nH]n1 [Example 45, 2-(2H-tetrazol-5-yl)-3-(1,3-thiazol-4-yl)benzenesulfonamide] | 7.07 | 5.92 | 6.30 | 0.7813 | 50 | 25 |  |  |  |  |  |  |  |  |
| NS(=O)(=O)c1nccc(-c2cnc3[nH]ccc3c2)c1-c1nn[nH]n1 [Example 212, 4-(1H-pyrrolo[2,3-b]pyridin-5-yl)-3-(2H-tetrazol-5-yl)pyridine-2-sulfonamide] | 8.10 | 6.38 | 7.88 | 0.3906 | 3.125 | 18.75 |  |  |  |  |  |  |  |  |
| NS(=O)(=O)c1cccc(-c2cnc(C3(O)CCC3)s2)c1-c1nn[nH]n1 [Example 21, 3-[2-(1-hydroxycyclobutyl)-1,3-thiazol-5-yl]-2-(2H-tetrazol-5-yl)benzenesulfonamide] | 7.20 | 5.64 | 6.25 | 12.89 | >200 | 100 |  |  |  |  |  |  |  |  |
| NS(=O)(=O)c1cccc(-c2ccc(C(=O)NCCO)cc2)c1-c1nn[nH]n1 [Example 17, N-(2-hydroxyethyl)-3′-sulfamoyl-2′-(2H-tetrazol-5-yl)biphenyl-4-carboxamide] | 8.07 | 7.06 | 6.68 | 0.7813 | 100 | 53.13 |  |  |  |  |  |  |  |  |
| Cc1ccc(-c2cccc(S(N)(=O)=O)c2-c2nnn[nH]2)cn1 [Example 299, 3-(6-methylpyridin-3-yl)-2-(1H-tetrazol-5-yl)benzenesulfonamide] |  |  |  |  |  |  |  | 7.93 | 6.35 |  | 0.1953 | 37.5 | 18.75 | 6.96 |
| NS(=O)(=O)c1cccc(-c2ccc3c(c2)CCCO3)c1-c1nn[nH]n1 [Example 85, 3-(3,4-dihydro-2H-chromen-6-yl)-2-(2H-tetrazol-5-yl)benzenesulfonamide] | 8.74 | 7.02 | 7.55 | 2.344 | 150 | 37.5 |  |  |  |  |  |  |  |  |
| NS(=O)(=O)c1cccc(-c2ccc3c(=O)nc[nH]c3c2)c1-c1nn[nH]n1 [Example 69, 3-(4-oxo-1,4-dihydroquinazolin-7-yl)-2-(2H-tetrazol-5-yl)benzenesulfonamide] | 8.30 | 6.63 | 7.58 | 0.7813 | 25 | 18.75 |  |  |  |  |  |  |  |  |
| NS(=O)(=O)c1cccc(-c2c[nH]c3nccnc23)c1-c1nn[nH]n1 [Example 104, 3-(5H-pyrrolo[2,3-b]pyrazin-7-yl)-2-(2H-tetrazol-5-yl)benzenesulfonamide] | 7.78 | 6.54 | 6.97 | 0.9766 | 25 | 15.63 |  |  |  |  |  |  |  |  |
| NS(=O)(=O)c1cccc(-c2ccccc2O)c1-c1nn[nH]n1 [Example 326, 2′-hydroxy-2-(2H-tetrazol-5-yl)-[1,1′-biphenyl]-3-sulfonamide] |  |  |  |  |  |  |  | 8.44 | 6.43 | 6.87 | 3.32 | 37.5 | 18.75 |  |
| COc1cccc(S(N)(=O)=O)c1-c1nnn[nH]1 [Example 257, 3-Methoxy-2-(1H-tetrazol-5-yl)benzenesulfonamide] |  |  |  |  |  |  |  | 6.26 | 5.08 | 5.03 | 1.563 | >200 | 150 |  |
| CS(=O)(=O)N1CCC(c2cccc(S(N)(=O)=O)c2-c2nn[nH]n2)CC1 [Example 172, 3-(1-(methylsulfonyl)piperidin-4-yl)-2-(2H-tetrazol-5-yl)benzenesulfonamide] | 7.78 | 6.14 | 6.38 | 4.688 | 100 | 18.75 |  |  |  |  |  |  |  |  |
| NS(=O)(=O)c1nccc(-c2ccncc2)c1-c1nnn[nH]1 [Example 194, 3-(1H-tetrazol-5-yl)-[4,4′-bipyridine]-2-sulfonamide] | 6.61 | 5.64 | 6.04 | 0.7813 | 62.5 | 75 |  |  |  |  |  |  |  |  |
| NS(=O)(=O)c1cccc(-c2ccc(C(=O)N3CCOCC3)cc2)c1-c1nn[nH]n1 [Example 10, 4′-(morpholin-4-ylcarbonyl)-2-(2H-tetrazol-5-yl)biphenyl-3-sulfonamide] | 8.43 | 7.20 | 6.01 | 3.125 | >200 | 6.25 |  |  |  |  |  |  |  |  |
| NS(=O)(=O)c1cccc(-c2cnn3ncccc23)c1-c1nn[nH]n1 [Example 105, 3-pyrazolo[1,5-b]pyridazin-3-yl-2-(2H-tetrazol-5-yl)benzenesulfonamide] | 7.84 | 6.43 | 7.15 | 0.9766 | 18.75 | 31.25 |  |  |  |  |  |  |  |  |
